Laboratory results: patent US8658787B2, “Galacto-rhamnogalacturonate compositions for the treatment of non-alcoholic steatohepatitis and non-alcoholic fatty liver disease” (Galectin Therapeutics Inc., priority 2011, dated 2014)

Test system: STAM mice
Assay: STAM mouse model of steatohepatitis (diabetes induced, high fat diet), treatment with GR-MD-02
Type: in vivo
Procedure: The experimental model used in this example is the mouse in which diabetes was induced and a high fat diet was administered, a model that has been called STAM mice. […] This is a proven model in which the mice consistently develop NASH with hepatocyte fat accumulation, evidence of hepatocyte toxicity, portal and lobular inflammatory infiltrates, peri-sinusoidal fibrosis, advanced fibrosis with nodule formation, cirrhosis, and ultimately hepatocellular carcinoma in a certain percentage of animals.
The progression of disease appearance is fatty liver (FL) by five weeks of age, steatohepatitis (NASH) by 7 weeks of age, fibrosis (Fib) by 9 weeks of age, nodule formation (N) by 13 weeks of age, and some animals developing hepatocellular carcinoma (HC) by 16 weeks of age (FIG. 1).
GR-MD-02, produced as described in Example 1, was given in a dose of 60 mg/kg twice weekly intravenously for four (4) weeks at the each of the starting times indicated. Early treatment was given for weeks 6 through 9 and late therapy was given for weeks 9 through 12.
The NFLD activity score was used to evaluate the severity of liver disease on histological sections of liver and gives points for three aspects of NASH pathology including, steatosis (0 (<5%), 1 (5-33%), 2 (33-66%), or 3 (>66%)), hepatocyte ballooning (0 (none), 1, (few), or […]), and lobular inflammation (0 (no foci), 1 (<2 foci/200× field), 2 (2-4 foci/200× field), or 3 (>4 foci/200× field)). The total number of points is the NFLD activity score.

galacto-rhamnogalacturonate [GR-MD-02]
whole blood glucose (60 mg/kg twice weekly i.v., early or late treatment schedule, vs vehicle control): no statistical differences
changes in body weight (60 mg/kg twice weekly intravenously, early (weeks 6-9) and late (weeks 9-12) treatment, vs vehicle (normal saline)): no difference in body weight
Sirius red staining of liver histology (early (6-9 weeks) and late (9-12 weeks) treatment groups, vs vehicle control): marked reduction in Sirius red staining
collagen percent area (Sirius red, computer assisted morphometric analysis) (early and late treatment groups and both combined, vs vehicle): markedly statistically significantly reduced
NFLD activity score on liver histology (average) (early treatment group (weeks 6-9), 60 mg/kg twice weekly i.v., vehicle average 5, p<0.01 vs vehicle): 3
alpha-Smooth Muscle Actin in liver tissue (immunohistochemical staining, digital morphometry) (marker for activated stellate cells, vs vehicle): marked reduction in alpha-Smooth Muscle Actin
galectin-3 in liver tissue (immunohistochemical staining, digital morphometry) (vs vehicle treated animals): marked reduction of galectin-3
